Our source for the IC50 values is patent publication US20090018134A1, “Compounds - 945” (AstraZeneca AB, priority 2007, published 2009).

The target of one test is T1, mTOR (Homo sapiens, UniProt P42345).
T1 construct: FLAG; made in house
T1 sequence (P42345 1362-2549): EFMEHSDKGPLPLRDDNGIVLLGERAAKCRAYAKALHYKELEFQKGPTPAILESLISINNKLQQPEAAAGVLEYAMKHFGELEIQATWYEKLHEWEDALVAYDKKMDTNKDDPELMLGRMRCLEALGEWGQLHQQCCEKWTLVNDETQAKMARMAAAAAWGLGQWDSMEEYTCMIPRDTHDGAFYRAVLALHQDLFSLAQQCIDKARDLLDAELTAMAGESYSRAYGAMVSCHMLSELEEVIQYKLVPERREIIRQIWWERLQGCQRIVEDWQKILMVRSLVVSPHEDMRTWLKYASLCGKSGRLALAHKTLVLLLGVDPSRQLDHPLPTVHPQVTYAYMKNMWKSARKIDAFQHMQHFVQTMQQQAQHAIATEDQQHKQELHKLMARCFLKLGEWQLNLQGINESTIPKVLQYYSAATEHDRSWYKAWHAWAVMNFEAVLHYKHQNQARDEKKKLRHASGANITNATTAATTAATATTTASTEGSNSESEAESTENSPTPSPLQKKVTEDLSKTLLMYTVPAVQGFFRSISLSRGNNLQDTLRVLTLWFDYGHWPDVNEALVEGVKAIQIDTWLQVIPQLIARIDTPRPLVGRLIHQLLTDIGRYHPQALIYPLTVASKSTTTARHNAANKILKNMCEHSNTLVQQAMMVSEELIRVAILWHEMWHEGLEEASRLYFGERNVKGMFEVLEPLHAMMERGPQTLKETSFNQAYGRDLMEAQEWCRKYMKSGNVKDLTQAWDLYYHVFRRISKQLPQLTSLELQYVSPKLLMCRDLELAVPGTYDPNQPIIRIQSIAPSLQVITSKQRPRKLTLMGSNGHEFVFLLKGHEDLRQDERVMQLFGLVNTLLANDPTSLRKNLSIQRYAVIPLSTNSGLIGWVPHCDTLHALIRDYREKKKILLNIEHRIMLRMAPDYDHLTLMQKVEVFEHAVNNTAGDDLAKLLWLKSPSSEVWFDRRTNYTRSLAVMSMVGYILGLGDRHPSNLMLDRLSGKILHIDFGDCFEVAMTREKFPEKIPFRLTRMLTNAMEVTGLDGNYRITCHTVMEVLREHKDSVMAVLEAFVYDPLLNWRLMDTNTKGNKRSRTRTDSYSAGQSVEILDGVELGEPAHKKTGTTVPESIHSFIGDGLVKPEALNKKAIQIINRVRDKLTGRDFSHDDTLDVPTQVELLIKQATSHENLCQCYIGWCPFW
Description: In Vitro mTOR Kinase Assay (Echo), Test (a)(ii). The note with it: read-out: mTOR Kinase Assay (Echo). It is filed as biochemical. The text has this:
(a)(ii) In Vitro mTOR Kinase Assay (Echo)
The assay used AlphaScreen technology (Gray et al., Analytical Biochemistry, 2003, 313: 234-245) to determine the ability of test compounds to inhibit phosphorylation by recombinant mTOR.
A C-terminal truncation of mTOR encompassing amino acid residues 1362 to 2549 of mTOR (EMBL Accession No. L34075) was stably expressed as a FLAG-tagged fusion in HEK293 cells as described by Vilella-Bach et al., […], 1999, 274, 4266-4272. The HEK293 FLAG-tagged mTOR (1362-2549) stable cell line was routinely maintained at 37° C. with 5% CO2 up to a confluency of 70-90% in Dulbecco's modified Eagle's growth medium (DMEM; Invitrogen Limited, Paisley, UK Catalogue No. 41966-029) containing 10% heat-inactivated foetal calf serum (FCS; Sigma, Poole, Dorset, UK, Catalogue No. F0392), 1% L-glutamine (Gibco, Catalogue No. 25030-024) and 2 mg/ml Geneticin (G418 sulfate; Invitrogen Limited, UK Catalogue No. 1013 1-027). Following expression in the mammalian HEK293 cell line, expressed protein was purified using the FLAG epitope tag using standard purification techniques.
Aliquots (120 nl […]) of each compound dilution were acoustically dispensed placed using a Labcyte Echo 550 into a well of a Greiner 384-well low volume (LV) white polystyrene plate (Greiner Bio-one).
These assay solutions were incubated for 2 hours at room temperature.
Each reaction was stopped by the addition of […] of a mixture of EDTA (50 mM), bovine serum albumin (BSA; 0.5 mg/mL) and Tris-HCl pH 7.4 buffer (50 mM) containing p70 S6 Kinase (T389) 1A5 Monoclonal Antibody (Cell Signalling Technology, Catalogue No. 9206B) and AlphaScreen Streptavidin donor and Protein A acceptor beads (200 ng; Perkin Elmer, Catalogue No. 6760002B and 6760137R respectively) were added and the assay plates were left overnight at room temperature in the dark. The resultant signals arising from laser light excitation at 680 nm were read using a Packard Envision instrument.
The phosphorylated biotinylated peptide that is associated with AlphaScreen Streptavidin donor beads forms a complex with the p70 S6 Kinase (T389) 1A5 Monoclonal Antibody that is associated with Alphascreen Protein A acceptor beads. Upon laser light excitation at 680 nm, the donor bead: acceptor bead complex produces a signal that can be measured. Accordingly, the presence of mTOR kinase activity results in an assay signal. In the presence of an mTOR kinase inhibitor, signal strength is reduced.
mTOR enzyme inhibition for a given test compound was expressed as an IC50 value.
For the compound `C[C@H]1COCCN1c1cc(C2(S(=O)(=O)c3ccccc3C(F)(F)F)CC2)nc(-c2ccc(NC(=O)Nc3ccc(C(F)(F)F)cc3)cc2)n1` [Example 10j, 1-[4-[4-[(3S)-3-methylmorpholin-4-yl]-6-[1-[2-(trifluoromethyl)phenyl]sulfonylcyclopropyl]pyrimidin-2-yl]phenyl]-3-[4-(trifluoromethyl)phenyl]urea], the IC50 worked out at 110 nM. As for `C[C@H]1COCCN1c1cc(C2(S(=O)(=O)C3CC3)CC2)nc(-c2ccc(NC(=O)NCCN(C)C)cc2)n1` [Example 3f, 1-[4-[4-(1-cyclopropylsulfonylcyclopropyl)-6-[(3S)-3-methylmorpholin-4-yl]pyrimidin-2-yl]phenyl]-3-(2-dimethylaminoethyl)urea], the IC50 was found to be 21.4 nM. Still for that read-out and setting: for `CCCNC(=O)Nc1ccc(-c2nc(N3CCOC[C@@H]3C)cc(C3(S(C)(=O)=O)CCCC3)n2)cc1` [Example 4h, 1-[4-[4-[(3S)-3-methylmorpholin-4-yl]-6-(1-methylsulfonylcyclopentyl)pyrimidin-2-yl]phenyl]-3-propyl-urea] the value was 1.57 nM.

The same test, now with this note: table of enzyme assay Test (a)(ii); read-out: Test (a)(ii) IC50.
For `Cc1csc(S(=O)(=O)C2(c3cc(N4CCOC[C@@H]4C)nc(-c4ccc(NC(=O)N[C@@H](C)CO)cc4)n3)CCC2)n1` [Example 98b, 3-[(2S)-1-hydroxypropan-2-yl]-1-[4-[4-[(3S)-3-methylmorpholin-4-yl]-6-[1-[(4-methyl-1,3-thiazol-2-yl)sulfonyl]cyclobutyl]pyrimidin-2-yl]phenyl]urea], the IC50 came to 4.13 nM.

Turning to `CCNC(=O)Nc1ccc(-c2nc(N3CCOC[C@@H]3C)cc(C3(S(=O)(=O)c4ccccc4Cl)CC3)n2)cc1` [Example 76b, 3-[4-[4-[1-(2-chlorophenyl)sulfonylcyclopropyl]-6-[(3S)-3-methylmorpholin-4-yl]pyrimidin-2-yl]phenyl]-1-ethylurea], the IC50 stood at 7.19 nM. Consider `C[C@H]1COCCN1c1cc(C2(S(=O)(=O)c3ccc(Cl)cc3)CCOCC2)nc(-c2ccc(NC(=O)NC3CC3)cc2)n1` [Example 24, 1-[4-[4-[4-(4-Chlorophenyl)sulfonyloxan-4-yl]-6-[(3S)-3-methylmorpholin-4-yl]pyrimidin-2-yl]phenyl]-3-cyclopropylurea], for which the IC50 is 5.17 nM.

For the compound `C[C@H]1COCCN1c1cc(C2(S(=O)(=O)C3CC3)CC2)nc(-c2ccc(NC(=O)NCc3ncc[nH]3)cc2)n1` [Example 64v, 1-[4-[4-(1-cyclopropylsulfonylcyclopropyl)-6-[(3S)-3-methylmorpholin-4-yl]pyrimidin-2-yl]phenyl]-3-(1H-imidazol-2-ylmethyl)urea], the IC50 was determined as 146 nM.

Turning to `C[C@H]1COCCN1c1cc(C2(S(=O)(=O)c3cc(F)cc(F)c3)CC2)nc(-c2ccc(NC(=O)NCCO)cc2)n1` [Example 19g, 1-[4-[4-[1-(3,5-difluorophenyl)sulfonylcyclopro-pyl]-6-[(3S)-3-methylmorpholin-4-yl]pyrimidin-2-yl]phenyl]-3-(2-hydroxyethyl)urea], the IC50 was 0.274 nM. Turning to `CCCNC(=O)Nc1ccc(-c2nc(N3CCOC[C@@H]3C)cc(C3(S(=O)(=O)CCO)CC3)n2)cc1` [Example 16e, 3-[4-[4-[1-(2-hydroxyethylsulfonyl)cyclopropyl]-6-[(3S)-3-methylmorpholin-4-yl]pyrimidin-2-yl]phenyl]-1-propylurea], the IC50 was 21.4 nM. For the compound `CNC(=O)Nc1ccc(-c2nc(N3CCOC[C@@H]3C)cc(C3(S(=O)(=O)c4ccc(F)cc4)CC3)n2)cn1` [Example 14j, 1-[5-[4-[1-(4-fluorophenyl)sulfonylcyclopro-pyl]-6-[(3S)-3-methylmorpholin-4-yl]pyrimidin-2-yl]pyridin-2-yl]-3-methylurea], the IC50 amounted to 12.9 nM. The same measure, in the same setting: under `CCCNC(=O)Nc1ccc(-c2nc(N3CCOC[C@@H]3C)cc(C3(S(=O)(=O)C(C)(C)C)CC3)n2)cc1` [Example 18h, 1-[4-[4-(1-tert-butylsulfonylcyclopropyl)-6-[(3S)-3-methylmorpholin-4-yl]pyrimidin-2-yl]phenyl]-3-propylurea] stands 6.64 nM; under `C[C@H]1COCCN1c1cc(C2(S(=O)(=O)c3cccc(F)c3)CC2)nc(-c2ccc(NC(=O)NC3CC3)cc2)n1` [Example 53a, 3-cyclopropyl-1-[4-[4-[1-(3-fluorophenyl)sulfonylcyclopro-pyl]-6-[(3S)-3-methylmorpholin-4-yl]pyrimidin-2-yl]phenyl]urea], 2.29 nM; under `C[C@H]1COCCN1c1cc(C2(S(=O)(=O)CCCO)CCC2)nc(-c2ccc(NC(=O)Nc3nccs3)cc2)n1` [Example 43t, 1-[4-[4-[1-(3-hydroxypropylsulfonyl)cyclobu-tyl]-6-[(3S)-3-methylmorpholin-4-yl]pyrimdiin-2-yl]phenyl]-3-(1,3-thiazol-2-yl)urea], 5.45 nM. As to `C[C@H]1COCCN1c1cc(C2(S(=O)(=O)c3ccccc3)CCC2)nc(-c2ccc(NC(=O)NCc3ncc[nH]3)cc2)n1` [Example 36du, 1-[4-[4-[1-(benzenesulfonyl)cyclobutyl]-6-[(3S)-3-methylmorpholin-4-yl]pyrimidin-2-yl]phenyl]-3-(1H-imidazol-2-ylmethyl)urea], the IC50 came to 15.2 nM. Consider `CNC(=O)Nc1ccc(-c2nc(N3CCOC[C@@H]3C)cc(C3(S(C)(=O)=O)CC3)n2)cc1F` [Example 52a, 1-[2-fluoro-4-[4-[(3S)-3-methylmorpholin-4-yl]-6-(1-methylsulfonylcyclopropyl)pyrimidin-2-yl]phenyl]-3-methylurea], for which the IC50 worked out at 10.3 nM. On to `C[C@H]1COCCN1c1cc(C2(S(=O)(=O)CCO)CC2)nc(-c2ccc(NC(=O)NCCCO)cc2)n1` [Example 16f, 1-[4-[4-[1-(2-hydroxyethylsulfonyl)cyclopropyl]-6-[(3S)-3-methylmorpholin-4-yl]pyrimidin-2-yl]phenyl]-3-(3-hydroxypropyl)urea], for which the IC50 amounted to 21.2 nM. As for `C[C@H]1COCCN1c1cc(C2(S(=O)(=O)c3ccccc3)CC2)nc(-c2ccc(NC(=O)Nc3cn(C)cn3)cc2)n1` [Example 36eb, 1-[4-[4-[1-(benzenesulfonyl)cyclopropyl]-6-[(3S)-3-methylmorpholin-4-yl]pyrimidin-2-yl]phenyl]-3-(1-methylimidazol-4-yl)urea], the IC50 was 3.11 nM. For the compound `C[C@H]1COCCN1c1cc(C2(S(=O)(=O)CCCOC(F)F)CC2)nc(-c2ccc(NC(=O)NC3CC3)cc2)n1` [Example 96e, 3-cyclopropyl-1-[4-[4-[1-[3-(difluoromethoxy)propylsulfonyl]cyclopropyl]-6-[(3S)-3-methylmorpholin-4-yl]pyrimidin-2-yl]phenyl]urea], the IC50 came to 8.62 nM. Consider `C[C@H]1COCCN1c1cc(C2(S(=O)(=O)CCCO)CCC2)nc(-c2ccc(NC(=S)NCCO)cc2)n1` [Example 99f, 3-(2-hydroxyethyl)-1-[4-[4-[1-(3-hydroxypropylsulfonyl)cyclobutyl]-6-[(3S)-3-methylmorpholin-4-yl]pyrimidin-2-yl]phenyl]thiourea], for which the IC50 came out at 5.89 nM. Turning to `C[C@H]1COC[C@H](C)N1c1cc(C2(S(C)(=O)=O)CC2)nc(-c2ccc(NC(=O)NCCO)cc2)n1` [Example 91d, 1-[4-[4-[(3S,5S)-3,5-dimethylmorpholin-4-yl]-6-(1-methylsulfonylcyclopropyl)pyrimidin-2-yl]phenyl]-3-(2-hydroxyethyl)urea], the IC50 worked out at 3.56 nM.

For the compound `C[C@H]1COCCN1c1cc(C2(S(=O)(=O)c3ccc(F)c(F)c3)CC2)nc(-c2ccc(NC(=O)NCCO)cc2)n1` [Example 64j, 1-[4-[4-[1-(3,4-difluorophenyl)sulfonylcyclopro-pyl]-6-[(3S)-3-methylmorpholin-4-yl]pyrimidin-2-yl]phenyl]-3-(2-hydroxyethyl)urea], the IC50 came out at 1.2 nM.

As to `CCCNC(=O)Nc1ccc(-c2nc(N3CCOC[C@@H]3C)cc(C3(S(C)(=O)=O)CCCC3)n2)cc1` [Example 4h, 1-[4-[4-[(3S)-3-methylmorpholin-4-yl]-6-(1-methylsulfonylcyclopentyl)pyrimidin-2-yl]phenyl]-3-propyl-urea], the IC50 stood at 1.46 nM. As for `CC[C@H]1COCCN1c1cc(C2(S(=O)(=O)c3ccccc3)CC2)nc(-c2ccc(NC(=O)NC3CC3)cc2)n1` [Example 74a, 1-[4-[4-[1-(benzenesulfonyl)cyclopropyl]-6-[(3S)-3-ethylmorpholin-4-yl]pyrimidin-2-yl]phenyl]-3-cyclopropylurea], the IC50 is 3.98 nM. Regarding `C[C@H]1COCCN1c1cc(C2(S(C)(=O)=O)CCOCC2)nc(-c2ccc(NC(=O)Nc3cnn(C)c3)cc2)n1` [Example 23d, 1-[4-[4-[(3S)-3-methylmorpholin-4-yl]-6-(4-methylsulfonyloxan-4-yl)pyrimidin-2-yl]phenyl]-3-(1-methylpyrazol-4-yl)urea], the IC50 is 5.34 nM.
